Experimental data from EP4737454A1, “GLP-1 RECEPTOR AGONIST, AND PREPARATION METHOD THEREFOR AND USE THEREOF” (Wayne Biotechnology Co., Ltd., priority 2023, dated 2025).

target: Human GLP-1R (Homo sapiens, UniProt P43220); assay: cAMP level determination in human GLP-1R stably transfected HEK293T cells (HTRF cAMP kit); format: cell-based; details: 37°C 30 min
Description: Human GLP-1R HEK293T stably transfected cells were digested with trypsin, terminated with DMEM total (without p/s), centrifuged and washed twice with 1X Stimulation buffer, then resuspended in 1X stimulation buffer and counted. The cells were then prepared as a 1 Million/mL cell suspension in stimulation buffer. Compound powder was first prepared as a 10 mM stock solution in DMSO, then diluted to 2 mM with DMSO, and further prepared as 2X compound in 1X stimulation buffer (Cisbio kit buffer with freshly added IBMX at a final concentration of 0.5 mM). The top dose final concentration was 2000 nM, with a final DMSO concentration of 0.2%, diluted in a 1:3 gradient for 11 gradients.
According to the layout, 5 µl of compound was added to each well; Min wells contained 100 nM GLP-1, and Max wells contained 0.2% DMSO in 1X stimulation buffer. 5 µl of cell suspension was added to each well, centrifuged at 300 rpm at room temperature for 1 min, then incubated at 37°C for 30 min. 2X cAMP standards were prepared in 1X Stimulation buffer, with a top final concentration of 2.8 µM, diluted in a 1:3 gradient for 12 doses. According to the layout, 10 µl was added to each well. Finally, d2 and antibody were diluted 20-fold in 1X Detection buffer (Cisbio kit buffer), and 5 µl of each was added to each well according to the layout. After centrifugation at 300 rpm at room temperature for 1 min, the plate was incubated at room temperature for 2 hr.
Stimulation% was calculated based on Min and Max readings (665nm/615nm ratio) using the formula: 100*(ratio Max well - ratio test well)/(ratio Max well - ratio Min well). The cAMP concentration in each test well was derived from the cAMP standard curve, and the data was analyzed using GraphPad Prism 9 to plot four-parameter fit curves and calculate EC50 values using the formula: Y=Bottom + (Top-Bottom)/(1+10^((LogEC50-X)*HillSlope)). Table 1: cAMP Level Determination in Human GLP-1R Stably Transfected HEK293T Cells

Sequence of Human GLP-1R (P43220 24-463): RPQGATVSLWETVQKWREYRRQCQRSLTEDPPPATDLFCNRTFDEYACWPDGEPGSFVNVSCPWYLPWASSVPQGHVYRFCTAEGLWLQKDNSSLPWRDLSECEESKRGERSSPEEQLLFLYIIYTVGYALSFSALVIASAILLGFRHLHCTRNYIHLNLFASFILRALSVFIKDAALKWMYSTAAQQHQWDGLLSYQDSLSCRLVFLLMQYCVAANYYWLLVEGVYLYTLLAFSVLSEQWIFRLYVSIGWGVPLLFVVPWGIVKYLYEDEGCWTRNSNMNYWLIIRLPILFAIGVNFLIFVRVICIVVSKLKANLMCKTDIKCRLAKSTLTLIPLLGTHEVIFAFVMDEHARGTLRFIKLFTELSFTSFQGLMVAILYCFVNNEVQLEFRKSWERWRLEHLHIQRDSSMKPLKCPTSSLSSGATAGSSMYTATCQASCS

| SMILES | EC50 [nM] |
| --- | --- |
| Cc1cc(-n2nc3c(c2-n2ccn(-c4ccc(OC(F)(F)F)c(C(=O)N(C)C5CC5)c4)c2=O)[C@H](C)N(C(=O)c2cc4cc(C5CCOC(C)(C)C5)ccc4n2[C@@]2(c4nc(=O)o[nH]4)C[C@@H]2C)CC3)cc(C)c1F (some centres unmarked) [Compound 38] | 18.1 |
| Cc1cc(-n2nc3c(c2-n2ccn(-c4ccc(N(C)C5CC5)c(Cl)c4)c2=O)[C@H](C)N(C(=O)c2cc4cc(C5CCOC(C)(C)C5)ccc4n2[C@@]2(c4nc(=O)o[nH]4)C[C@@H]2C)CC3)cc(C)c1F (some centres unmarked) [Compound 67] | 67.8 |
| Cc1cc(-n2nc3c(c2-n2ccn(-c4ccc(N(C)C5CC5)cc4C(F)(F)F)c2=O)[C@H](C)N(C(=O)c2cc4cc(C5CCOC(C)(C)C5)ccc4n2[C@@]2(c4nc(=O)o[nH]4)C[C@@H]2C)CC3)cc(C)c1F (some centres unmarked) [Compound 65] | 648 |
| Cc1cc(-n2nc3c(c2-n2ccn(-c4ccc(N(C)C5CC5)c(OC(F)(F)F)c4)c2=O)[C@H](C)N(C(=O)c2cc4cc(C5CCOC(C)(C)C5)ccc4n2[C@@]2(c4noc(=O)[nH]4)C[C@@H]2C)CC3)cc(C)c1F (some centres unmarked) [Compound 66] | 67.8 |
| Cc1cc(-n2nc3c(c2-n2ccn(-c4ccc(C(=O)N(C(C)C)C5CC5)cc4)c2=O)[C@H](C)N(C(=O)c2cc4cc(C5CCOC(C)(C)C5)ccc4n2[C@@]2(c4nc(=O)o[nH]4)C[C@@H]2C)CC3)cc(C)c1F (some centres unmarked) [Compound 25] | 11.8 |
| C[C@H]1c2c(nn(-c3ccc(F)c(N4CCCC4)c3)c2-n2ccn(-c3ccc4c(cnn4C)c3F)c2=O)CCN1C(=O)c1cc2cc(C3CCOC(C)(C)C3)ccc2n1[C@@]1(c2nc(=O)o[nH]2)C[C@@H]1C (some centres unmarked) [Compound 3] | 26.5 |
| Cc1cc(-n2nc3c(c2-n2ccn(-c4ccc(N(C)C(=O)C5CC5)c(Cl)c4F)c2=O)[C@H](C)N(C(=O)c2cc4cc([C@H]5CCOC(C)(C)C5)ccc4n2[C@@]2(c4nc(=O)o[nH]4)C[C@@H]2C)CC3)cc(C)c1F [Compound 73] | 6.25 |
| Cc1cc(-n2nc3c(c2-n2ccn(-c4ccc(N(C)C5CC5)c(Cl)c4)c2=O)[C@H](C)N(C(=O)c2cc4cc([C@H]5CCOC(C)(C)C5)ccc4n2[C@@]2(c4noc(=O)[nH]4)C[C@@H]2C)CC3)cc(C)c1F [Compound 67b] | 11.2 |
| Cc1cc(-n2nc3c(c2-n2ccn(-c4cc5c(cc4F)S(=O)(=O)CC5)c2=O)[C@H](C)N(C(=O)c2cc4cc(C5CCOC(C)(C)C5)ccc4n2[C@@]2(c4nc(=O)o[nH]4)C[C@@H]2C)CC3)cc(C)c1F (some centres unmarked) [Compound 61] | 10.8 |
| Cc1cc(-n2nc3c(c2-n2ccn(-c4ccc(N(C)C5CC5)c(Cl)c4)c2=O)[C@H](C)N(C(=O)c2cc4cc([C@@H]5CCOC(C)(C)C5)ccc4n2[C@@]2(c4noc(=O)[nH]4)C[C@@H]2C)CC3)cc(C)c1F [Compound 67a] | 51.4 |
| Cc1cc(-n2nc3c(c2-n2ccn(-c4ccc(C(=O)N(C)C5(C(F)(F)F)CC5)cc4)c2=O)[C@H](C)N(C(=O)c2cc4cc(C5CCOC(C)(C)C5)ccc4n2[C@@]2(c4nc(=O)o[nH]4)C[C@@H]2C)CC3)cc(C)c1F (some centres unmarked) [Compound 16] | 10 |
| Cc1cc(-n2nc3c(c2-n2ccn(-c4cc(F)cc(C#N)c4)c2=O)[C@H](C)N(C(=O)c2cc4cc(C5CCOC(C)(C)C5)ccc4n2[C@@]2(c4nc(=O)o[nH]4)C[C@@H]2C)CC3)cc(C)c1F (some centres unmarked) [Compound 92] | 43.5 |
| Cc1cc(-n2nc3c(c2-n2ccn(-c4ccc(C(=O)N(C)C5CC5)cc4C#N)c2=O)[C@H](C)N(C(=O)c2cc4cc(C5CCOC(C)(C)C5)ccc4n2[C@@]2(c4nc(=O)o[nH]4)C[C@@H]2C)CC3)cc(C)c1F (some centres unmarked) [Compound 36] | 67.8 |
| Cc1cc(-n2nc3c(c2-n2ccn(-c4ccc(C(=O)N(C)C5CC5)cn4)c2=O)[C@H](C)N(C(=O)c2cc4cc(C5CCOC(C)(C)C5)ccc4n2[C@@]2(c4nc(=O)o[nH]4)C[C@@H]2C)CC3)cc(C)c1F (some centres unmarked) [Compound 29] | 102 |
| Cc1cc(-n2nc3c(c2-n2ccn(-c4ccc5c(c4)CCCS5(=O)=O)c2=O)[C@H](C)N(C(=O)c2cc4cc(C5CCOC(C)(C)C5)ccc4n2[C@@]2(c4nc(=O)o[nH]4)C[C@@H]2C)CC3)cc(C)c1F (some centres unmarked) [Compound 58] | 9.93 |
| Cc1cc(-n2nc3c(c2-n2ccn(-c4ccccc4C#N)c2=O)[C@H](C)N(C(=O)c2cc4cc(C5CCOC(C)(C)C5)ccc4n2[C@@]2(c4nc(=O)o[nH]4)C[C@@H]2C)CC3)cc(C)c1F (some centres unmarked) [Compound 89] | 201 |

| SMILES | EC50 [nM] |
| --- | --- |
| Cc1cc(-n2ccn(-c3c4c(nn3-c3cc(C)c(F)c(C)c3)CCN(C(=O)c3cc5cc(C6CCOC(C)(C)C6)ccc5n3[C@@]3(c5nc(=O)o[nH]5)C[C@@H]3C)[C@H]4C)c2=O)ccc1C(=O)N(C)C1(C)CC1 (some centres unmarked) [Compound 35] | 20 |
| Cc1cc(-n2nc3c(c2-n2ccn(-c4ccc(C(=O)N(C)C5(C)CC5)c(C(F)(F)F)c4)c2=O)[C@H](C)N(C(=O)c2cc4cc([C@H]5CCOC(C)(C)C5)ccc4n2[C@@]2(c4nc(=O)o[nH]4)C[C@@H]2C)CC3)cc(C)c1F [Compound 15] | 7.27 |
| Cc1cc(-n2nc3c(c2-n2ccn(-c4ccc(N(C)C(=O)C5(C(F)(F)F)CC5)cc4)c2=O)[C@H](C)N(C(=O)c2cc4cc(C5CCOC(C)(C)C5)ccc4n2[C@@]2(c4noc(=O)[nH]4)C[C@@H]2C)CC3)cc(C)c1F (some centres unmarked) [Compound 69] | 10.3 |
| Cc1cc(C#N)ccc1-n1ccn(-c2c3c(nn2-c2cc(C)c(F)c(C)c2)CCN(C(=O)c2cc4cc(C5CCOC(C)(C)C5)ccc4n2[C@@]2(c4nc(=O)o[nH]4)C[C@@H]2C)[C@H]3C)c1=O (some centres unmarked) [Compound 88] | 205 |
| Cc1cc(-n2nc3c(c2-n2ccn(-c4ccc(C#N)c(C5CC5)c4)c2=O)[C@H](C)N(C(=O)c2cc4cc(C5CCOC(C)(C)C5)ccc4n2[C@@]2(c4nc(=O)o[nH]4)C[C@@H]2C)CC3)cc(C)c1F (some centres unmarked) [Compound 79] | 17.8 |
| Cc1cc(-n2nc3c(c2-n2ccn(-c4ccc(C(=O)N(C)C5CC5)c(C)c4F)c2=O)[C@H](C)N(C(=O)c2cc4cc([C@H]5CCOC(C)(C)C5)ccc4n2[C@@]2(c4nc(=O)o[nH]4)C[C@@H]2C)CC3)cc(C)c1F [Compound 17] | 8.97 |
| Cc1cc(-n2nc3c(c2-n2ccn(-c4ccc(C(=O)N(C)C5CC5)c(OC(F)(F)F)c4F)c2=O)[C@H](C)N(C(=O)c2cc4cc([C@H]5CCOC(C)(C)C5)ccc4n2[C@@]2(c4nc(=O)o[nH]4)C[C@@H]2C)CC3)cc(C)c1F [Compound 54] | 4.48 |
| Cc1cc(-n2nc3c(c2-n2ccn(-c4ccc(C(=O)N(C)C5CCC5)cc4)c2=O)[C@H](C)N(C(=O)c2cc4cc(C5CCOC(C)(C)C5)ccc4n2[C@@]2(c4nc(=O)o[nH]4)C[C@@H]2C)CC3)cc(C)c1F (some centres unmarked) [Compound 21] | 14.4 |
| Cc1cc(-n2nc3c(c2-n2ccn(-c4ccc(C#N)c(C(F)(F)F)c4)c2=O)[C@H](C)N(C(=O)c2cc4cc(C5CCOC(C)(C)C5)ccc4n2[C@@]2(c4nc(=O)o[nH]4)C[C@@H]2C)CC3)cc(C)c1F (some centres unmarked) [Compound 86] | 13.8 |
| Cc1cc(-n2nc3c(c2-n2ccn(-c4ccc(C(=O)N(C)C5(C#N)CC5)c(F)c4)c2=O)[C@H](C)N(C(=O)c2cc4cc(C5CCOC(C)(C)C5)ccc4n2[C@@]2(c4nc(=O)o[nH]4)C[C@@H]2C)CC3)cc(C)c1F (some centres unmarked) [Compound 23] | 13.8 |
| Cc1cc(-n2nc3c(c2-n2ccn(-c4ccc(C(=O)N(C)C5CC5)c(C#N)c4)c2=O)[C@H](C)N(C(=O)c2cc4cc([C@H]5CCOC(C)(C)C5)ccc4n2[C@@]2(c4nc(=O)o[nH]4)C[C@@H]2C)CC3)cc(C)c1F [Compound 9] | 4.85 |
| Cc1cc(-n2ccn(-c3c4c(nn3-c3cc(C)c(F)c(C)c3)CCN(C(=O)c3cc5cc(C6CCOC(C)(C)C6)ccc5n3[C@@]3(c5nc(=O)o[nH]5)C[C@@H]3C)[C@H]4C)c2=O)ccc1C#N (some centres unmarked) [Compound 87] | 17.6 |
| Cc1cc(-n2nc3c(c2-n2ccn(-c4ccc(C#N)c(OC(F)F)c4)c2=O)[C@H](C)N(C(=O)c2cc4cc(C5CCOC(C)(C)C5)ccc4n2[C@@]2(c4nc(=O)o[nH]4)C[C@@H]2C)CC3)cc(C)c1F (some centres unmarked) [Compound 95] | 17.6 |
| Cc1cc(-n2nc3c(c2-n2ccn(-c4ccc5c(c4)CCS5(=O)=O)c2=O)[C@H](C)N(C(=O)c2cc4cc([C@H]5CCOC(C)(C)C5)ccc4n2[C@@]2(c4nc(=O)o[nH]4)C[C@@H]2C)CC3)cc(C)c1F [Compound 56b] | 5.59 |
| Cc1cc(-n2nc3c(c2-n2ccn(-c4ccc(N(C)C(=O)C5CC5)c(F)c4)c2=O)[C@H](C)N(C(=O)c2cc4cc(C5CCOC(C)(C)C5)ccc4n2[C@@]2(c4noc(=O)[nH]4)C[C@@H]2C)CC3)cc(C)c1F (some centres unmarked) [Compound 63] | 8.69 |
| Cc1cc(-n2nc3c(c2-n2ccn(-c4cccc(C#N)c4)c2=O)[C@H](C)N(C(=O)c2cc4cc(C5CCOC(C)(C)C5)ccc4n2[C@@]2(c4nc(=O)o[nH]4)C[C@@H]2C)CC3)cc(C)c1F (some centres unmarked) [Compound 80] | 11.5 |
